Where two headings read alike, the source gives them in different places. A value given as a limit tells only on which side of the number the result lay.

Data set [1] can be described thus: in vitro. The following applies: human, Caco-2, pH 7.4.
Data set [2] in a line: in vitro. The following applies: human, plasma.
Data set [3] in a line: physchem. Particulars: buffer, pH 7.4.
Data set [4] addresses T1, HPEPT1 (Homo sapiens, UniProt P46059).
T1 sequence (P46059 1-708): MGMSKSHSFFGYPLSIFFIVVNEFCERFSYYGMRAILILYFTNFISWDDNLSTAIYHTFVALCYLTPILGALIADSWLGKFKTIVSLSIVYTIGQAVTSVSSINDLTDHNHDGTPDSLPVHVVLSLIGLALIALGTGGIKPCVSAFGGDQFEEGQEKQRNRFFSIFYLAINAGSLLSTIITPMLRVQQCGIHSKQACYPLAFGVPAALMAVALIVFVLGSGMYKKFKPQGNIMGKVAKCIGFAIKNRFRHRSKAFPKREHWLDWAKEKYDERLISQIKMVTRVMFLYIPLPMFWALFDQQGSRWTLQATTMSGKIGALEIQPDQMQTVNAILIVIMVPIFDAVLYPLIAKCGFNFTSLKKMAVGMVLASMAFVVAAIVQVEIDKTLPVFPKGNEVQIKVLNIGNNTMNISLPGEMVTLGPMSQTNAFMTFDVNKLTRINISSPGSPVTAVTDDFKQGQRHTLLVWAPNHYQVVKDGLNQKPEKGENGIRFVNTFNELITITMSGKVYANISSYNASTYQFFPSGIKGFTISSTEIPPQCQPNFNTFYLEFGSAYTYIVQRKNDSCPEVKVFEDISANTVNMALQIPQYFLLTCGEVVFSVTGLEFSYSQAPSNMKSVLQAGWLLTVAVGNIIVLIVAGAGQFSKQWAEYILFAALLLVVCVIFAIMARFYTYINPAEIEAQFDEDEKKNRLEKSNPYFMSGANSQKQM
As to the kind of experiment: Inhibition of radiolabelled Gly-Sar uptake in DC5 cells overexpressing HPEPT1. It counts as cell-based. Details: expressed in transfected cells; host or cells: HeLa cells overexpressing hPEPT1 (called 'HPEPT1 infected cells'). The method, then:
Amino acid prodrugs are tested for their interaction with the dipeptide transporter, HPEPT1, using tissue culture cells that are engineered to overexpress HPEPT1. In this example, the cells that overexpress HPEPT1, termed DC5, are a human meduloblastoma cell line that is stably transfected with a eukaryotic expression vector encoding HPEPT1. […] DC5 cells are plated at a density of 12,000 cells/well in 96-well tissue culture plates and allowed to grow for 2 days. The cells are washed once with 200 microliters of uptake buffer and aspirated. The plates are cooled to 4° C. and 25 ul of uptake buffer containing 125 nanomoles Gly-Sar (at a specific activity of 1 microcurie/micromole) is added. The uptake buffer also contains the prodrugs to be tested at concentrations ranging from 10 micromolar to 20 millimolar. The assay is initiated by placing the plate in a shaking water bath at 37° C. and is terminated after 10 min by rapid washing with multiple changes of 4° C. phosphate buffered saline (PBS). The radioactive Gly-Sar peptide that is transported by the hpept1 is extracted from the cell layer with 200 ul of a one to one mixture of methanol and water and is counted in 4 ml of CytoScint ES™ scintillation cocktail (ICN). The data are plotted as % Gly-Sar uptake of control (no competitive substrate) versus the competitive substrate concentration. […] Typically, values that are below 10 mM indicate that the drug interacts with transporter.

The nature of data set [5]: Caco-2 monolayer transport and stability. It counts as in vitro ADME. Particulars: human, Caco-2, pH 6. Here is the method: The transepithelial transport of Ara A, 5′-O-L-valyl Ara A, 5′-O-L-isoleucyl Ara A is tested in Caco-2 monolayers grown in transwell filters following standard procedures as described in detail in Landowski, C. P. et al., Pharm Res, 2005. 22(9): p. 1510-8. In these experiments, transport studies are performed 21 days post-seeding. The assay is initiated by adding drug transport solution (0.2 mM drug in MES buffer, pH 6.0 containing 5 mM D-glucose, 5 mM MES, 1 mM CaCl2, 1 mM MgCl2, 150 mM NaCl, 3 mM KCl, 1 mM NaH2PO4) to the apical chamber of the Caco-2 insert. Two hundred microliter aliquots are withdrawn from the basolateral chamber at predetermined intervals and replaced with fresh HEPES pH 7.4 buffer. The epithelial integrity of representative cell monolayers is assessed by monitoring transepithelial resistance. In these assays, the stability of the drug in both chambers of the insert is also monitored. […] Importantly, the prodrugs are stable, showing minimal metabolism to Ara A and Ara-H over a 2-hour time frame.
On the technique in general: Caco-2 cells form a polarised layer with tight junctions and transporters.

For the next data set, the system named is vaccinia virus. The data set can be described thus: microbe, parasite or virus in culture. It counts as cell-based. The following applies: Orthopoxvirus vaccinia, HFF, 72 h, read-out: Vaccinia Plaque Reduction (IC50).
Another data set deals with Cowpox. The data set can be described thus: organism not typed. The following applies: read-out: Cowpox Plaque Reduction (IC50). The format is cell-based.
Data set [6] in a line: Solubility testing in water. The format is physicochemical. Particulars: thermodynamic from solid; water added dropwise to 5 mg. Here is the method:
Water is added dropwise to 5 mg of each prodrug with intermittent stirring until the drug is fully dissolved. All of the Ara A prodrugs dissolved prior to the addition of 0.19 ml of water or at a concentration>26 mg/ml water. In contrast, unmodified Ara A is poorly soluble (<0.5 mg/ml) under these conditions.

A short description of the next data set: KB cell cytotoxicity. Particulars: human, KB cells.
The subject of the next data set is adenosine deaminase. As to the kind of experiment: Stability in the presence of adenosine deaminase. The format is biochemical. Particulars: FIG. 3A.
In data set [7] the test system is HeLa cells. Particulars: 1 mM prodrug, pH 6.0, 45 minutes.
Data set [8] in a line: physchem. Particulars: buffer, pH 7.4. The source holds these as a separate data set.
Data set [9] has as its target T2, human dipeptide transporter, hPept1 (Homo sapiens, UniProt P46059).
T2 sequence (P46059 1-708): T1 sequence (P46059 1-708)
The following applies: human, pH 6.

The test system of data set [10] is HeLa cells. The following applies: control cultures not overexpressing hpept1, 50 micromolar, pH 6.0, 45 minutes.
Data set [11] is described as follows: Hydrolysis of gemcitabine prodrugs in phosphate buffer pH 7.4.
Data set [12] is described as follows: in vitro. The following applies: human, Caco-2.
Data set [13] concerns the target T3, biphenyl hydrolase-like enzyme (BPHL) (Homo sapiens, UniProt Q86WA6).
T3 sequence (Q86WA6 38-291): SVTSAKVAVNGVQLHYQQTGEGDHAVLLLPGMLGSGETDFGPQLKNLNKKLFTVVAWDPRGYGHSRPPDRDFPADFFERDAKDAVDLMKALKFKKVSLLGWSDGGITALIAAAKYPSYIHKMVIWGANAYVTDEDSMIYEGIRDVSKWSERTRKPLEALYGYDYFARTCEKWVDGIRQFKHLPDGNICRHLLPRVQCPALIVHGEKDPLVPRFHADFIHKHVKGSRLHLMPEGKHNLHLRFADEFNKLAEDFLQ
It counts as biochemical.

In data set [14] the target is T1, HPEPT1. The following applies: human, pH 6.

Turning to `CC(C)[C@H](N)C(=O)OCC(CO)OCn1cnc2c(=O)nc(N)[nH]c21` (some centres unmarked) [Valganciclovir], the results for the half-life in the data set “in vitro [1]”, in the data set “in vitro [2]” and in “physchem [3]” were 0.545 ± 0.0117 h, 5.05 ± 0.3 h and 16.5 ± 0.24 h, respectively. For the same compound, on HPEPT1 [4] (inhibition of Gly-Sar uptake, DC5 cells overexpressing HPEPT1, 10 min, 37° C., read-out: DC5 IC50), the IC50 worked out at 5230 µM.
Regarding `Nc1ncnc2c1ncn2[C@@H]1O[C@H](CO)[C@@H](O)[C@@H]1O` [Ara A, Adenine 9-beta-D-arabinofuranoside, reference compound], the apical-to-basolateral permeability (Papp A→B) at 2 h, 0.2 mM in [5] amounted to 1.42 ± 0.05 ×10⁻⁶ cm/s. For the same compound, the values for the concentration for half-maximal inhibition (IC50) in the data set on vaccinia virus, with Cowpox and in “KB cell cytotoxicity” were 5 µM, 6.5 µM and greater than 100 µM, respectively. Also, the solubility in data set [6] was less than 500 µg/mL. In addition, the “deamination by adenosine deaminase (in words)” value in the data set with adenosine deaminase is recorded as “rapidly hydrolyzed”.
Take `CC(C)[C@H](N)C(=O)OCCOCn1cnc2c(=O)[nH]c(N)nc21` [Valacyclovir]: the HeLa control uptake in the data set with HeLa cells [7] is recorded as 11.6 ± 0.5 nmol/mg/45 min. In addition, the half-life in the data set “in vitro [1]” was determined as 0.462 ± 0.01 h; in “physchem [8]”, 16.5 ± 0.24 h; in data set [11], 17.1 ± 0.19 h; in “in vitro [12]” it was 0.545 ± 0.0117 h; in the data set “in vitro [2]”, 5.2 ± 0.41 h. In data set [9], this compound had a HeLa/hPEPT1 uptake of 221.2 ± 8.1. In addition, the hPepT1/Control is 19.0 in data set [9] and 4.25 at HPEPT1 [14]. For the same compound, the “Uptake Control” value in the data set with HeLa cells [10] is on record as 0.59 ± 0.06 nmole/mg/45 min. The “% of Control (VACV)” value in data set [13] amounted to 100.0%. At HPEPT1 [4], this compound yielded a half-inhibitory concentration (IC50) of 423 µM. For the same compound, the “Uptake (hPepT1)” value at HPEPT1 [14] was 2.51 ± 0.28 nmole/mg/45 min.

What is called half-life is the time needed for the level to fall by half in the phase considered. As a reminder, the IC50 is the concentration that inhibits the measured activity by half. Usually Papp A→B stands for how fast a substance crosses the layer from the apical side. Low values mean poor permeation, high ones ready permeation. One may read the solubility as the concentration that dissolves in the medium under given conditions. Low values mean little dissolved substance, high ones much dissolved substance.

The values are drawn from patent US20070167353A1, “PRODRUG COMPOSITION” (priority 2003, published 2007).
